The test system of this experiment is Mfn2. The experiment is described as follows: Mfn2 modification and degradation in A-T/LV shRNA cells treated with mitochondrial depolarizing agents. The format is cell-based, human. As to conditions: ISG15-silenced A-T cells; CCCP 25 uM with MG132 or Bafl 100 nM, 24 hr. Here is the method: Immunoblotting Analysis of Mitochondrial Proteins—Mitochondria were isolated from A-T/LV control and ISG15 shRNA cells using the Miochondrial Isolation Kit (Thermo Scientific Company, 89874). The Dounce homogenization protocol described by the manufacturer was used to isolate mitochondria from cells. Mitochondrial pellets were resuspended in lysis buffer containing 50 mM Tris pH 7.5 and 4% (v/v) SDS. Samples were homogenized and boiled for 10 min. Lysates containing equal protein were then mixed with 6× Laemmli SDS sample buffer (3× final concentration). Samples were boiled again and mitochondrial proteins were analyzed by SDS-PAGE. Immunoblotting analyses using either anti-ISG15 (raised against human ISG15) (20), anti-ubiquitin (gift from Dr. Arthur Haas, at LSUHSC—New Orleans), or anti-mitofusin 2 (Abcam, ab88569) antibodies were carried out using the ECL Western procedure (Pierce, 34076) and the BioRad VersaDoc Imaging System (BioRad). Immunoblotting Analysis of HA Polyubiquitylated Proteins in Cells: Cells were transfected with HA-ubiquitin using the PolyFect transfection reagent (Qiagen, 301105). Twenty four hours after transfection, mitochondria were isolated as described above. Mitochondrial lysis, SDS-PAGE, and immunoblotting analysis to detect HA-ubiquitin conjugated proteins using anti-HA antibodies were carried out as described above. Immunoblotting Analysis of Mfn2 in Cells: Cells were lysed in lysis buffer containing 50 mM Tris-HCl, pH 7.5, 2% SDS, and protease inhibitor cocktail. Lysates were sonicated, boiled, and cleared by centrifugation. Lysates containing equal protein were then mixed with 6× Laemmli SDS sample buffer (3× final concentration). Samples were boiled again and proteins were separated by 15% SDS-PAGE. Immunoblotting analysis was carried out using anti-Mfn2 antibodies (Abcam) as described above. Intensity of the Mfn2 bands was quantitated using BioRad Quantity One software. Statistical analysis—Statistical analysis was carried out using GraphPad software.
Many outer mitochondrial membrane (OMM) proteins are ubiquitylated and degraded via the 26S proteasome prior to mitophagy in cells treated with the mitochondrial depolarizing agents (28,29). To test whether ISG15 inhibits polyubiquitylation of OMM proteins, we assessed the fate of Mfn2, an OMM protein and proteasome substrate, in A-T/LV-control and A-T/LV-ISG15-silenced cells treated with two different mitochondrial depolarizing agents, valinomycin and carbonylcyanide m-chlorophenylhydrazone (CCCP). Consistent with the literature reports (29,35,36), we observed a ladder of high molecular weight anti-Mfn2 cross-reactive bands above the 86 kDa Mfn2 protein band that is reminiscent of polyubiquitylation, in both ISG15-silenced and ISG15 overexpressing A-T cells (FIGS. 34 A and B, left panels). The endogenous level of these high molecular weight Mfn2 cross-reactive bands was remarkably higher in ISG15-silenced as compared to the ISG15-overexpressing A-T cells in the absence of any drugs (FIGS. 34A and B, first panels, compare lanes 1 and 4). […] In contrast, the level of these Mfn2 cross-reactive high molecular weight bands decreased under the same drug treatment conditions in ISG15-silenced A-T cells (FIGS. 34A and B, first panels, lanes 4-6, and the accompanying bar graph in the second panel for quantitation). […] The bar graphs in FIGS. 34A and B, third panels, show mean values of the ratio between free Mfn2 (86 kDa band) and actin proteins (±SEM) in CCCP-treated A-T/LV-control and ISG15 shRNA cells measured from eight independent experiments, and valinomycin-treated A-T/LV-control and ISG15 shRNA cells measured from three independent experiments respectively.

The source of these data is patent US12085575B2, “Compositions and methods for detecting proteinopathies” (BOARD OF SUPERVISORS OF LOUISIANA STATE UNIVERSITY AND …, priority 2011, dated 2024).

Structures are written as SMILES. Residues, ends and D or L forms follow the SMILES beside them. *: point of attachment. Cbz = O=C(OCc1ccccc1)*

For the molecule `CO/C1=C\C(C)=C\[C@@H](C)[C@@H](O)[C@@H](C)C/C(C)=C/C=C/[C@H](OC)[C@@H]([C@@H](C)[C@@H](O)[C@H](C)[C@@]2(O)C[C@@H](O)[C@H](C)[C@@H](C(C)C)O2)OC1=O` [Bafilomycin A1], the “free Mfn2 degradation in CCCP-treated cells” value is reported as “not”. With `CC(C)C[C@@H](C=O)NC(=O)[C@H](CC(C)C)NC(=O)[C@H](CC(C)C)NC(=O)OCc1ccccc1` [MG132] (Cbz-Leu-Leu-Leu-aldehyde) the entry was “restored”.
